We go through 23 compounds from ChEMBL document CHEMBL4346687, “Design, synthesis and biological evaluation of novel uracil derivatives bearing 1, 2, 3-triazole moiety as thymidylate synthase (TS) inhibitors and as potential antitumor drugs” (Eur J Med Chem, 2019).

Data set [1] relates to OVCAR-3. Nature of the data set: cells. The following applies: Homo sapiens, OVCAR-3, 24 h.
Description: Antiproliferative activity against human OVCAR3 cells assessed as reduction in cell viability after 24 hrs by MTT assay
The subject of data set [2] is HepG2. Briefly: cells. Conditions: Homo sapiens, HepG2, 24 h.
Description: Antiproliferative activity against human HepG2 cells assessed as reduction in cell viability after 24 hrs by MTT assay
Data set [3] deals with SGC-7901. Briefly: cells. The following applies: Homo sapiens, SGC-7901, 24 h.
Description: Antiproliferative activity against human SGC7901 cells assessed as reduction in cell viability after 24 hrs by MTT assay
Data set [4] can be described thus: Cytotoxicity against human HPAEpic cells assessed as reduction in cell viability after 24 hrs by MTT assay. The data set is classed as cell-based. The following applies: for CC50 at 24 h: HPAEpic cells; for CC50: 24 h. (In general: Formazan colour is commonly taken as a measure of viable cells.)
Data set [5] concerns A549. Briefly: cells. The following applies: Homo sapiens, A549, 24 h.
Description: Antiproliferative activity against human A549 cells assessed as reduction in cell viability after 24 hrs by MTT assay
A short description of data set [6]: (§1) Cytotoxicity against human L02 cells assessed as reduction in cell viability after 24 hrs by MTT assay. The class given is cell-based. The following applies: L02 cells.
Data set [7] can be described thus: (§2) Cytotoxicity against human GES-1 cells assessed as reduction in cell viability after 24 hrs by MTT assay. The data set is classed as cell-based, GES1. Conditions: GES-1 cells.
A short description of data set [8]: Cytotoxicity against human IOSE-80 cells assessed as reduction in cell viability after 24 hrs by MTT assay. The data set is classed as cell-based. Conditions: for CC50 at 24 h: IOSE-80 cells; for CC50: 24 h.
Data set [9] relates to L02. The description is as §1. The data set is classed as cell-based. Conditions: l02, 24 h.
Data set [10] deals with GES1. The data set is described as §2. The data set is classed as cell-based. Conditions: ges1, 24 h.

What is called IC50 is the concentration that inhibits the measured activity by half. Lower therefore signals inhibition by little substance. By CC50 is commonly meant the concentration that lowers cell viability or growth by half.

`Cc1ccc(-n2cc(-c3cccc(NS(=O)(=O)c4c[nH]c(=O)[nH]c4=O)c3)nn2)cc1`: the IC50 in data set [1] is 3.54 µM; in data set [2], greater than 20 µM; in data set [3], 9.43 µM; in data set [5], 3.63 µM. In addition, the CC50 at 24 h stood at 10.6 µM in data set [4], 23.1 µM in data set [6], 15.8 µM in data set [7] and 12.8 µM in [8].
For `O=c1[nH]cc(S(=O)(=O)Nc2ccc(-c3cn(-c4ccccc4Cl)nn3)cc2)c(=O)[nH]1`, the IC50 stood at 4.27 µM in data set [1], 2.23 µM in data set [2], 2.68 µM in data set [3] and 2.81 µM in [5]. Besides, the CC50 at 24 h in data set [4] amounted to 17 µM; in [6] it was 19.3 µM; in data set [7], 16.4 µM; in data set [8] it was 22.2 µM.
Consider `Cc1cccc(-n2cc(-c3cccc(NS(=O)(=O)c4c[nH]c(=O)[nH]c4=O)c3)nn2)c1`, for which the IC50 in data set [1] amounted to 4.08 µM; in [2] it was 7.05 µM; in [3] it was 9.1 µM; in data set [5], 3.55 µM. For the same compound, the CC50 at 24 h in [4] came to 23.7 µM; in data set [6] it was 28.3 µM; in data set [7] it was 18.5 µM; in [8], 23.4 µM.
For `O=c1[nH]cc(S(=O)(=O)Nc2ccccc2-c2cn(-c3ccccc3F)nn2)c(=O)[nH]1`, the IC50 stood at 15.3 µM in [1], 12.5 µM in data set [2], 10.8 µM in data set [3] and 7.37 µM in [5]. The CC50 at 24 h in [4], in data set [6], in data set [7] and in data set [8] was greater than 100 µM in each case.
Regarding `O=c1[nH]cc(S(=O)(=O)Nc2ccccc2-c2cn(-c3ccccc3)nn2)c(=O)[nH]1`, the IC50 in data set [1] was 6.65 µM; in data set [2], 6.16 µM; in data set [3] it was 11.8 µM; in data set [5] it was 6.79 µM. Moreover, the CC50 at 24 h was 14.3 µM in [4], 10.6 µM in data set [6], greater than 100 µM in data set [7] and 10.5 µM in data set [8].
On to `O=c1[nH]cc(S(=O)(=O)Nc2ccc(-c3cn(-c4cccc(F)c4)nn3)cc2)c(=O)[nH]1`, for which the IC50 was greater than 20 µM in data set [1], greater than 20 µM in [2], greater than 20 µM in [3] and 9.98 µM in data set [5]. For the same compound, the CC50 entry in data set [4], in [9], in data set [10] and in [8] was “Non-Toxic” in each case.
With `O=c1[nH]cc(S(=O)(=O)Nc2ccc(-c3cn(-c4ccc(F)cc4)nn3)cc2)c(=O)[nH]1`, the IC50 in [1] is greater than 20 µM; in [2], greater than 20 µM; in data set [3], greater than 20 µM; in data set [5] it was 9.72 µM. In addition, the CC50 at 24 h in data set [4] and in [7] was greater than 100 µM each time. Moreover, the CC50 entry in [9] and in data set [8] was “Non-Toxic” in each case.
For `O=c1[nH]cc(S(=O)(=O)Nc2ccccc2-c2cn(-c3ccc(F)cc3)nn2)c(=O)[nH]1`, the IC50 in data set [1] was greater than 20 µM; in data set [2], greater than 20 µM; in data set [3], greater than 20 µM; in data set [5] it was 6.39 µM. The CC50 entry in [4], in [9], in [10] and in [8] was “Non-Toxic” in each case.
Consider `O=c1[nH]cc(S(=O)(=O)Nc2ccc(-c3cn(-c4ccccc4)nn3)cc2)c(=O)[nH]1`, for which the IC50 in [1] is 18 µM; in [2], 18 µM; in data set [3], 18.8 µM; in data set [5], 7.17 µM. In addition, the CC50 result in data set [4], in data set [9], in data set [10] and in data set [8] was “Non-Toxic” each time.
`Cc1ccc(-n2cc(-c3ccccc3NS(=O)(=O)c3c[nH]c(=O)[nH]c3=O)nn2)cc1`: the concentration for half-maximal inhibition (IC50) in [1] is 2.19 µM; in [2], 8.35 µM; in data set [3] it was 6.39 µM; in data set [5], 2.91 µM. Moreover, the CC50 at 24 h was 7.03 µM in [4], greater than 100 µM in data set [6], 32.4 µM in data set [7] and 33.4 µM in [8].
For the compound `O=c1[nH]cc(S(=O)(=O)Nc2ccc(-c3cn(-c4ccccc4F)nn3)cc2)c(=O)[nH]1`, the IC50 in data set [1] is 8.03 µM; in data set [2], greater than 20 µM; in [3], 7.27 µM; in data set [5], 5.96 µM. The 50% cytotoxic concentration (CC50) at 24 h is 32.6 µM in data set [4], greater than 100 µM in [6], greater than 100 µM in data set [7] and greater than 100 µM in data set [8].
For the compound `Cc1cccc(-n2cc(-c3ccc(NS(=O)(=O)c4c[nH]c(=O)[nH]c4=O)cc3)nn2)c1`, the IC50 in data set [1] was 7.49 µM; in data set [2], greater than 20 µM; in data set [3], 17.4 µM; in [5] it was 6.96 µM. Also, the CC50 at 24 h in data set [4] is 31.3 µM; in [6], 39 µM; in data set [7], 28.3 µM; in data set [8], 29.3 µM.
As to `O=c1[nH]cc(S(=O)(=O)Nc2cccc(-c3cn(-c4cccc(Cl)c4)nn3)c2)c(=O)[nH]1`, the IC50 was determined as 3.41 µM in data set [1], 4.2 µM in data set [2], 3.95 µM in data set [3] and 2.43 µM in data set [5]. Also, the CC50 at 24 h was found to be 10.2 µM in data set [4], 8.33 µM in [6], 26.2 µM in data set [7] and 18.9 µM in [8].
For the compound `O=c1[nH]cc(S(=O)(=O)Nc2cccc(-c3cn(-c4ccc(Cl)cc4)nn3)c2)c(=O)[nH]1`, the half-maximal inhibitory concentration (IC50) is 2.04 µM in [1], 1.96 µM in data set [2], 2.16 µM in data set [3] and 1.73 µM in data set [5]. For the same compound, the CC50 at 24 h in [4] stood at 14 µM; in data set [6] it was 9.86 µM; in data set [7], 11.3 µM; in data set [8] it was 6.26 µM.
`O=c1[nH]cc(S(=O)(=O)Nc2ccc(-c3cn(-c4ccc(Cl)cc4)nn3)cc2)c(=O)[nH]1`: the IC50 in data set [1] came to 2.16 µM; in data set [2], 1.98 µM; in [3] it was 1.83 µM; in [5] it was 1.21 µM. The CC50 at 24 h in data set [4] turned out to be 14.8 µM; in data set [6], 42.9 µM; in data set [7] it was 23.3 µM; in data set [8], 17.7 µM.
As for `O=c1[nH]cc(S(=O)(=O)Nc2ccccc2-c2cn(-c3ccccc3Cl)nn2)c(=O)[nH]1`, the IC50 in data set [1] amounted to 3.17 µM; in [2], 2.24 µM; in [3], 6.52 µM; in data set [5], 2.74 µM. Further, the CC50 at 24 h amounted to 17.7 µM in data set [4], 22.8 µM in [6], 20.8 µM in [7] and 11.2 µM in data set [8].
Regarding `Cc1ccccc1-n1cc(-c2ccccc2NS(=O)(=O)c2c[nH]c(=O)[nH]c2=O)nn1`, the 50% inhibitory concentration (IC50) was 6.55 µM in [1], 13.9 µM in [2], 9.57 µM in [3] and 3.21 µM in data set [5]. Further, the CC50 at 24 h in [4] came to 9.67 µM; in data set [6], 56.6 µM; in data set [7], 19.9 µM; in data set [8], 17.4 µM.
For `Cc1ccccc1-n1cc(-c2cccc(NS(=O)(=O)c3c[nH]c(=O)[nH]c3=O)c2)nn1`, the IC50 in [1] came to 6.23 µM; in data set [2], 9.57 µM; in [3] it was 9.23 µM; in data set [5] it was 5.47 µM. Besides, the CC50 at 24 h in data set [4] is 10.2 µM; in [6] it was 15.3 µM; in data set [7], 21.5 µM; in data set [8] it was 36.4 µM.
`O=c1[nH]cc(S(=O)(=O)Nc2ccc(-c3cn(-c4cccc(Cl)c4)nn3)cc2)c(=O)[nH]1`: the IC50 in data set [1] is 2.75 µM; in data set [2] it was 2.02 µM; in data set [3] it was 2.46 µM; in data set [5] it was 2.31 µM. The CC50 at 24 h was 13.8 µM in data set [4], 19 µM in [6], 7.57 µM in data set [7] and 14.3 µM in data set [8].
As to `O=c1[nH]cc(S(=O)(=O)Nc2ccccc2-c2cn(-c3cccc(Cl)c3)nn2)c(=O)[nH]1`, the IC50 in data set [1] was determined as 2.18 µM; in data set [2], 2.46 µM; in data set [3], 2.27 µM; in data set [5], 2.34 µM. In addition, the CC50 at 24 h in [4], in [6], in [7] and in [8] was greater than 100 µM in each case.
In the case of `O=c1[nH]cc(S(=O)(=O)Nc2cccc(-c3cn(-c4ccccc4)nn3)c2)c(=O)[nH]1`, the IC50 in [1] was greater than 20 µM; in [2], 11.2 µM; in data set [3] it was 17.2 µM; in data set [5], 12.7 µM. Also, the CC50 at 24 h was 41.5 µM in data set [4], greater than 100 µM in [6] and 22.5 µM in data set [7]. The CC50 result in data set [8] is listed as “Non-Toxic”.
Regarding `O=c1[nH]cc(S(=O)(=O)Nc2cccc(-c3cn(-c4ccccc4Cl)nn3)c2)c(=O)[nH]1`, the IC50 in data set [1] came to 5.37 µM; in [2], 4.03 µM; in data set [3] it was 3.01 µM; in data set [5] it was 2.73 µM. Besides, the CC50 at 24 h in data set [4] is 12.3 µM; in data set [6] it was 11.5 µM; in data set [7] it was 14 µM; in data set [8], 17.9 µM.
Take `Cc1cccc(-n2cc(-c3ccccc3NS(=O)(=O)c3c[nH]c(=O)[nH]c3=O)nn2)c1`: the IC50 stood at 3.15 µM in [1], 3.62 µM in [2], 3.51 µM in [3] and 1.87 µM in [5]. Further, the CC50 at 24 h in data set [4] worked out at 12.3 µM; in [6] it was 21.9 µM; in data set [7], 23.7 µM; in data set [8], 15.8 µM.
